Measurements reported in patent publication US6737383B1, “Herbicidal oxadiazolidines” (priority 1999, dated 2004).

Key:
corn = assay: Test B pre/postemergence corn; format: in vivo, Zea mays
Procedure, shortened: (§1)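 Test chemicals in a non-phytotoxic solvent mixture with surfactant were sprayed preemergence onto planted seeds and postemergence onto plants 2 to 18 cm tall (1- to 4-leaf stage). After twelve to sixteen days in a greenhouse, injury was visually rated against untreated controls from 0 (no effect) to 10 (complete control).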

rice = assay: Test B flood test rice; format: in vivo, Oryza sativa
Procedure, shortened: (§2)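 Read-out is a visual response score from 0 (no effect) to 10 (complete control), assigned by comparison with untreated controls. Treatment was applied at the 2-leaf stage, and plants stayed in the greenhouse for twelve to sixteen days before scoring.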

sugar beet = assay: Test B pre/postemergence sugar beet; format: in vivo, Beta vulgaris
Procedure, shortened: as §1

rape = assay: Test B pre/postemergence rape; format: in vivo, Brassica napus
Procedure, shortened: as §1

purple nutsedge = assay: Test B pre/postemergence purple nutsedge; format: in vivo, Cyperus rotundus; details: Postemergence
Procedure, shortened: as §1

bamyardgrass = assay: Test B flood test barnyardgrass; format: in vivo, Echinochloa crus-galli
Procedure, shortened: as §2

surinam grass = assay: Test B pre/postemergence surinam grass; format: in vivo, Brachiaria decumbens
Procedure, shortened: as §1

smallflower flatsedge = assay: Test B flood test smallflower flatsedge; format: in vivo, Cyperus difformis
Procedure, shortened: as §2

crabgrass = assay: Test B pre/postemergence crabgrass; format: in vivo, Digitaria sanguinalis
Procedure, shortened: as §1

wheat = assay: Test B pre/postemergence wheat; format: in vivo, Triticum aestivum
Procedure, shortened: as §1

duck salad = assay: Test B flood test duck salad; format: in vivo, Heteranthera limosa
Procedure, shortened: as §2

giant foxtail = assay: Test B pre/postemergence giant foxtail; format: in vivo, Setaria faberii
Procedure, shortened: as §1

cocklebur = assay: Test B pre/postemergence cocklebur; format: in vivo, Xanthium strumarium
Procedure, shortened: as §1

morningglory = assay: Test B pre/postemergence morningglory; format: in vivo, Ipomoea hederacea
Procedure, shortened: as §1

wild oat = assay: Test B pre/postemergence wild oat; format: in vivo, Avena fatua
Procedure, shortened: as §1

pigweed = assay: Test B pre/postemergence pigweed; format: in vivo, Amaranthus retroflexus
Procedure, shortened: as §1

[1] = Postemergence, Rate 250 g/ha, scale 0 to 10, 0 no effect, 10 complete control
[2] = Postemergence, Rate 1000 g/ha, scale 0 to 10 (0 no effect, 10 complete control)
[3] = Preemergence, Rate 125 g/ha, scale 0 to 10 (0 no effect, 10 complete control)
[4] = Preemergence, Rate 250 g/ha, scale of 0 to 10 where 0 is no effect and 10 is complete control
[5] = Preemergence, Rate 500 g/ha, scale 0 (no effect) to 10 (complete control)
[6] = Rate 125 g/ha, Postemergence, scale 0 to 10, 0 no effect, 10 complete control
[7] = Rate 500 g/ha, Postemergence, 0 to 10 scale (0 no effect, 10 complete control)
[8] = Rate 1000 g/ha, Preemergence, scale 0 to 10 (0 no effect, 10 complete control)
[9] = Rate 125 g/ha, Postemergence section (flood test species), scale 0 to 10, 0 no effect, 10 complete control
[10] = Rate 500 g/ha, Postemergence section of Table B, 0 to 10 scale (0 no effect, 10 complete control)
[11] = flood test, listed under Postemergence, Rate 250 g/ha, scale 0 to 10, 0 no effect, 10 complete control

CCN(CC)C(=O)n1oc(=O)n(-c2c(C)cccc2C)c1=O [Compound 2]
4: Plant response rating, Corn (corn; [3]) | Crabgrass plant response rating (crabgrass; [2]) | Plant response rating, Wild oats (wild oat; [8])
8: Corn plant response rating (corn; [2]) | Plant response rating, Corn (corn; [8]) | Giant foxtail plant response rating (giant foxtail; [2])
6: Plant response rating, Corn (corn; [4]) | Corn plant response rating (corn; [7]) | Plant response rating, B. signalgrass (surinam grass; [8]) | Plant response rating, Crabgrass (crabgrass; [8]) | Plant response rating, Giant foxtail (giant foxtail; [3])
3: Corn plant response rating (corn; [1])
5: Morningglory plant response rating (morningglory; [2])
2: B. signalgrass plant response rating (surinam grass; [2])
7: Corn plant response rating (corn; [5]) | Giant foxtail plant response rating (giant foxtail; [1]) | Plant response rating, Giant foxtail (giant foxtail; [4]) | Giant foxtail plant response rating (giant foxtail; [5]) | Giant foxtail plant response rating (giant foxtail; [7])
10: Plant response rating, Giant foxtail (giant foxtail; [8])
0: Corn plant response rating (corn; [6]) | Rice plant response rating (rice; [2]) | Rice plant response rating (rice; [9]) | Rice plant response rating (rice; [10]) | Rice plant response rating (rice; [11]) | Sugarbeets plant response rating (sugar beet; [1]) | Sugarbeets plant response rating (sugar beet; [2]) | Plant response rating, Sugarbeets (sugar beet; [3]) | Plant response rating, Sugarbeets (sugar beet; [4]) | Sugarbeets plant response rating (sugar beet; [5]) | Sugarbeets plant response rating (sugar beet; [6]) | Plant response rating, Sugarbeets (sugar beet; [8]) | Rape plant response rating (rape; [1]) | Rape plant response rating (rape; [2]) | Plant response rating, Rape (rape; [3]) | Plant response rating, Rape (rape; [4]) | Rape plant response rating (rape; [5]) | Rape plant response rating (rape; [6]) | Rape plant response rating (rape; [7]) | Plant response rating, Rape (rape; [8]) | Nutsedge plant response rating (purple nutsedge; Rate 250 g/ha, scale 0 to 10, 0 no effect, 10 complete control) | Nutsedge plant response rating (purple nutsedge; Rate 1000 g/ha, scale 0 to 10 (0 no effect, 10 complete control)) | Nutsedge plant response rating (purple nutsedge; Rate 125 g/ha, scale 0 to 10, 0 no effect, 10 complete control) | Nutsedge plant response rating (purple nutsedge; Rate 500 g/ha, 0 to 10 scale (0 no effect, 10 complete control)) | Barnyardgrass plant response rating (bamyardgrass; [2]) | Barnyardgrass plant response rating (bamyardgrass; [9]) | Barnyardgrass plant response rating (bamyardgrass; [10]) | Barnyardgrass plant response rating (bamyardgrass; [11]) | B. signalgrass plant response rating (surinam grass; [1]) | Plant response rating, B. signalgrass (surinam grass; [3]) | Plant response rating, B. signalgrass (surinam grass; [4]) | B. signalgrass plant response rating (surinam grass; [5]) | B. signalgrass plant response rating (surinam grass; [6]) | B. signalgrass plant response rating (surinam grass; [7]) | S. Flatsedge plant response rating (smallflower flatsedge; [2]) | S. Flatsedge plant response rating (smallflower flatsedge; [9]) | S. Flatsedge plant response rating (smallflower flatsedge; [11]) | Crabgrass plant response rating (crabgrass; [1]) | Plant response rating, Crabgrass (crabgrass; [3]) | Plant response rating, Crabgrass (crabgrass; [4]) | Crabgrass plant response rating (crabgrass; [5]) | Crabgrass plant response rating (crabgrass; [6]) | Crabgrass plant response rating (crabgrass; [7]) | Wheat plant response rating (wheat; [1]) | Wheat plant response rating (wheat; [2]) | Plant response rating, Wheat (wheat; [3]) | Plant response rating, Wheat (wheat; [4]) | Wheat plant response rating (wheat; [5]) | Wheat plant response rating (wheat; [6]) | Plant response rating, Wheat (wheat; [8]) | Ducksalad plant response rating (duck salad; [2]) | Ducksalad plant response rating (duck salad; [9]) | Ducksalad plant response rating (duck salad; [10]) | Ducksalad plant response rating (duck salad; [11]) | Giant foxtail plant response rating (giant foxtail; [6]) | Cocklebur plant response rating (cocklebur; [1]) | Cocklebur plant response rating (cocklebur; [2]) | Plant response rating, Cocklebur (cocklebur; [3]) | Plant response rating, Cocklebur (cocklebur; [4]) | Cocklebur plant response rating (cocklebur; [5]) | Cocklebur plant response rating (cocklebur; [6]) | Cocklebur plant response rating (cocklebur; [7]) | Morningglory plant response rating (morningglory; [1]) | Plant response rating, Morningglory (morningglory; [3]) | Plant response rating, Morningglory (morningglory; [4]) | Morningglory plant response rating (morningglory; [5]) | Morningglory plant response rating (morningglory; [6]) | Morningglory plant response rating (morningglory; [7]) | Plant response rating, Morningglory (morningglory; [8]) | Wild oats plant response rating (wild oat; [1]) | Wild oats plant response rating (wild oat; [2]) | Plant response rating, Wild oats (wild oat; [3]) | Plant response rating, Wild oats (wild oat; [4]) | Wild oats plant response rating (wild oat; [5]) | Wild oats plant response rating (wild oat; [6]) | Redroot pigweed plant response rating (pigweed; [1]) | Redroot pigweed plant response rating (pigweed; [2]) | Plant response rating, Redroot pigweed (pigweed; [3]) | Plant response rating, Redroot pigweed (pigweed; [4]) | Redroot pigweed plant response rating (pigweed; [5]) | Redroot pigweed plant response rating (pigweed; [6]) | Redroot pigweed plant response rating (pigweed; [7]) | Plant response rating, Redroot pigweed (pigweed; [8])
